From PubChem BioAssay (NCI)
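GI50 = concentration required for 50% inhibition of growth. TGI: total growth inhibition.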

Tests used:
Experiment in all cases: NCI tumour cell line growth inhibition, 384-well format
ACHN renal = system: ACHN renal
NCI-H322M lung = system: NCI-H322M lung
SN12C renal = system: SN12C renal
SNB-19 CNS = system: SNB-19 CNS
NCI/ADR-RES ovarian = system: NCI/ADR-RES ovarian
KM12 colon = system: KM12 colon
HCT-15 colon = system: HCT-15 colon
A549 NSCLC = system: A549 NSCLC
NCI-H23 lung = system: NCI-H23 lung
IGROV1 ovarian = system: IGROV1 ovarian
HOP-92 NSCLC = system: HOP-92 NSCLC
OVCAR-4 ovarian = system: OVCAR-4 ovarian
T-47D breast = system: T-47D breast
MALME-3M melanoma = system: MALME-3M melanoma
EKVX NSCLC = system: EKVX NSCLC
LOX IMVI melanoma = system: LOX IMVI melanoma
MCF7 breast = system: MCF7 breast
SF-268 CNS = system: SF-268 CNS
SK-OV-3 ovarian = system: SK-OV-3 ovarian
TK-10 renal = system: TK-10 renal
HOP-62 NSCLC = system: HOP-62 NSCLC
UACC-257 melanoma = system: UACC-257 melanoma
PC-3 prostate = system: PC-3 prostate
RXF 393 renal = system: RXF 393 renal
OVCAR-5 ovarian = system: OVCAR-5 ovarian
NCI-H226 lung = system: NCI-H226 lung
UO-31 renal = system: UO-31 renal
CAKI-1 renal = system: CAKI-1 renal
A498 renal = system: A498 renal

In the case of `CC(=O)O[C@@]12CO[C@@H]1C[C@H](O)[C@@]1(C)C(=O)[C@H](O)C3=C(C)[C@@H](OC(=O)[C@H](O)[C@@H](NC(=O)OC(C)(C)C)c4ccccc4)C[C@@](O)([C@@H](OC(=O)c4ccccc4)[C@H]21)C3(C)C`, the GI50 (ACHN renal) is reported as 0.0201 µM, the TGI (ACHN renal) is reported as 20.9 µM and the TGI (NCI-H322M lung) is reported as 31.3 µM. For the same molecule, the TGI (SN12C renal) was 21.2 µM, the TGI (SNB-19 CNS) was > 70.7 µM and the GI50 (NCI/ADR-RES ovarian) was 0.782 µM. For the same molecule, the TGI (NCI/ADR-RES ovarian) was 2.26 µM, the TGI (KM12 colon) was 24 µM and the GI50 (HCT-15 colon) was < 0.0151 µM. For the same molecule, the TGI (HCT-15 colon) was 1.79 µM, the TGI (A549 NSCLC) was 29.1 µM and the TGI (NCI-H23 lung) was 27.3 µM. It also gave a TGI (IGROV1 ovarian) of 27.8 µM, a TGI (HOP-92 NSCLC) of 33.2 µM and a TGI (OVCAR-4 ovarian) of 39.9 µM. For the same molecule, the TGI (T-47D breast) was > 100 µM, the GI50 (MALME-3M melanoma) was 12 µM and the TGI (MALME-3M melanoma) was 24.8 µM. It also gave a TGI (EKVX NSCLC) of 35.8 µM, a TGI (LOX IMVI melanoma) of 17.4 µM and a TGI (MCF7 breast) of 24.7 µM. For the same molecule, the TGI (SF-268 CNS) was 36.1 µM, the TGI (SK-OV-3 ovarian) was > 100 µM and the GI50 (TK-10 renal) was < 0.0143 µM. For the same molecule, the TGI (TK-10 renal) was > 47.4 µM, the TGI (HOP-62 NSCLC) was 17.3 µM and the TGI (UACC-257 melanoma) was 31.6 µM. For the same molecule, the TGI (PC-3 prostate) was 37.5 µM, the TGI (RXF 393 renal) was < 0.0108 µM and the TGI (OVCAR-5 ovarian) was 36.3 µM. For the same molecule, the TGI (NCI-H226 lung) was 22.5 µM, the GI50 (UO-31 renal) was 0.0791 µM and the TGI (UO-31 renal) was 51.8 µM. For the same molecule, the TGI (CAKI-1 renal) was 18 µM and the TGI (A498 renal) was 18.7 µM.
